{"source": "the supplement of paper PMC10307832", "experiment_in_all_cases": "relative viability (nuclei count vs DMSO), 5 days (fraction); higher = more cells survive", "key": {"NCI-H596": {"system": "NCI-H596", "summary_of_the_method": "(§1)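 Lung cancer cell lines were seeded in 1536-well plates and dosed by pin tool the next day, with either a single drug or a fixed anchor-drug dose combined with five library-drug doses (not always all listed) spaced in √10 steps. Five days later, one step fixed the cells and stained their nuclei (final 0.05% Triton X-100, 1% formaldehyde, 1 ug/ml Hoechst), and nuclei were counted on 4× images. Relative viability is the nuclei count in treated wells divided by the count in vehicle wells, and each value is the median of duplicate plates.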"}, "HARA": {"system": "HARA", "summary_of_the_method": "as §1"}, "NCI-H2170": {"system": "NCI-H2170", "summary_of_the_method": "as §1"}, "NCI-H23": {"system": "NCI-H23", "summary_of_the_method": "as §1"}, "SW 1573": {"system": "SW 1573", "summary_of_the_method": "as §1"}, "EKVX": {"system": "EKVX", "summary_of_the_method": "as §1"}, "NCI-H2405": {"system": "NCI-H2405", "summary_of_the_method": "as §1"}, "H3255": {"system": "H3255", "summary_of_the_method": "as §1"}, "NCI-H3122": {"system": "NCI-H3122", "summary_of_the_method": "as §1"}, "HCC-15": {"system": "HCC-15", "summary_of_the_method": "as §1"}, "SW 900": {"system": "SW 900", "summary_of_the_method": "as §1"}, "LCLC-103H": {"system": "LCLC-103H", "summary_of_the_method": "as §1"}, "EPLC-272H": {"system": "EPLC-272H", "summary_of_the_method": "as §1"}, "RERF-LC-KJ": {"system": "RERF-LC-KJ", "summary_of_the_method": "as §1"}, "LK-2": {"system": "LK-2", "summary_of_the_method": "as §1"}, "ChaGo-K-1": {"system": "ChaGo-K-1", "summary_of_the_method": "as §1"}, "NCI-H1793": {"system": "NCI-H1793", "summary_of_the_method": "as §1"}, "LC-2-ad": {"system": "LC-2-ad", "summary_of_the_method": "as §1"}, "NCI-H1648": {"system": "NCI-H1648", "summary_of_the_method": "as §1"}, "EMC-BAC-2": {"system": "EMC-BAC-2", "summary_of_the_method": "as §1"}, "HCC-827": {"system": "HCC-827", "summary_of_the_method": "as §1"}, "NCI-H1944": {"system": "NCI-H1944", "summary_of_the_method": "as §1"}, "NCI-H1792": {"system": "NCI-H1792", "summary_of_the_method": "as §1"}}}
{"smiles": "Oc1nc(-c2ccc(C(F)(F)F)cc2)nc2c1CSCC2", "note": "[XAV939] + Nc1ncn([C@H]2C[C@H](O)[C@@H](CO)O2)c(=O)n1 [Decitabine] (partner 2 µM)", "values": [{"measurement": "relative viability", "setting": "NCI-H596; first compound 0.08 µM", "value": 1}, {"measurement": "relative viability", "setting": "NCI-H596; first compound 0.253 µM", "value": 0.976}, {"measurement": "relative viability", "setting": "NCI-H596; first compound 0.8 µM", "value": 1.03}, {"measurement": "relative viability", "setting": "NCI-H596; first compound 2.53 µM", "value": 0.928}, {"measurement": "relative viability", "setting": "HARA; first compound 0.08 µM", "value": 0.552}, {"measurement": "relative viability", "setting": "HARA; first compound 0.253 µM", "value": 0.51}, {"measurement": "relative viability", "setting": "HARA; first compound 0.8 µM", "value": 0.626}, {"measurement": "relative viability", "setting": "HARA; first compound 2.53 µM", "value": 0.379}, {"measurement": "relative viability", "setting": "NCI-H2170; first compound 0.08 µM", "value": 0.472}, {"measurement": "relative viability", "setting": "NCI-H2170; first compound 0.253 µM", "value": 0.484}, {"measurement": "relative viability", "setting": "NCI-H2170; first compound 0.8 µM", "value": 0.455}, {"measurement": "relative viability", "setting": "NCI-H2170; first compound 2.53 µM", "value": 0.385}, {"measurement": "relative viability", "setting": "NCI-H23; first compound 0.08 µM", "value": 0.312}, {"measurement": "relative viability", "setting": "NCI-H23; first compound 0.8 µM", "value": 0.32}, {"measurement": "relative viability", "setting": "NCI-H23; first compound 2.53 µM", "value": 0.273}, {"measurement": "relative viability", "setting": "SW 1573; first compound 0.08 µM", "value": 0.559}, {"measurement": "relative viability", "setting": "SW 1573; first compound 0.253 µM", "value": 0.436}, {"measurement": "relative viability", "setting": "SW 1573; first compound 0.8 µM", "value": 0.437}, {"measurement": "relative viability", "setting": "SW 1573; first compound 2.53 µM", "value": 0.453}, {"measurement": "relative viability", "setting": "EKVX; first compound 0.08 µM", "value": 0.329}, {"measurement": "relative viability", "setting": "EKVX; first compound 0.253 µM", "value": 0.336}, {"measurement": "relative viability", "setting": "EKVX; first compound 0.8 µM", "value": 0.356}, {"measurement": "relative viability", "setting": "EKVX; first compound 2.53 µM", "value": 0.262}, {"measurement": "relative viability", "setting": "NCI-H2405; first compound 0.08 µM", "value": 0.776}, {"measurement": "relative viability", "setting": "NCI-H2405; first compound 0.253 µM", "value": 0.721}, {"measurement": "relative viability", "setting": "NCI-H2405; first compound 0.8 µM", "value": 0.709}, {"measurement": "relative viability", "setting": "NCI-H2405; first compound 2.53 µM", "value": 0.689}, {"measurement": "relative viability", "setting": "H3255; first compound 0.08 µM", "value": 0.637}, {"measurement": "relative viability", "setting": "H3255; first compound 0.253 µM", "value": 0.56}, {"measurement": "relative viability", "setting": "H3255; first compound 0.8 µM", "value": 0.576}, {"measurement": "relative viability", "setting": "H3255; first compound 2.53 µM", "value": 0.386}, {"measurement": "relative viability", "setting": "NCI-H3122; first compound 0.08 µM", "value": 0.572}, {"measurement": "relative viability", "setting": "NCI-H3122; first compound 0.253 µM", "value": 0.401}, {"measurement": "relative viability", "setting": "NCI-H3122; first compound 0.8 µM", "value": 0.51}, {"measurement": "relative viability", "setting": "NCI-H3122; first compound 2.53 µM", "value": 0.394}, {"measurement": "relative viability", "setting": "HCC-15; first compound 0.08 µM", "value": 0.702}, {"measurement": "relative viability", "setting": "HCC-15; first compound 0.253 µM", "value": 0.656}, {"measurement": "relative viability", "setting": "HCC-15; first compound 0.8 µM", "value": 0.656}, {"measurement": "relative viability", "setting": "HCC-15; first compound 2.53 µM", "value": 0.635}, {"measurement": "relative viability", "setting": "SW 900; first compound 0.253 µM", "value": 0.454}, {"measurement": "relative viability", "setting": "SW 900; first compound 0.8 µM", "value": 0.438}, {"measurement": "relative viability", "setting": "SW 900; first compound 2.53 µM", "value": 0.428}, {"measurement": "relative viability", "setting": "LCLC-103H; first compound 0.08 µM", "value": 0.756}, {"measurement": "relative viability", "setting": "LCLC-103H; first compound 0.253 µM", "value": 0.587}, {"measurement": "relative viability", "setting": "LCLC-103H; first compound 0.8 µM", "value": 0.687}, {"measurement": "relative viability", "setting": "LCLC-103H; first compound 2.53 µM", "value": 0.642}, {"measurement": "relative viability", "setting": "EPLC-272H; first compound 0.08 µM", "value": 0.357}, {"measurement": "relative viability", "setting": "EPLC-272H; first compound 0.253 µM", "value": 0.299}, {"measurement": "relative viability", "setting": "EPLC-272H; first compound 0.8 µM", "value": 0.385}, {"measurement": "relative viability", "setting": "EPLC-272H; first compound 2.53 µM", "value": 0.332}, {"measurement": "relative viability", "setting": "RERF-LC-KJ; first compound 0.08 µM", "value": 0.717}, {"measurement": "relative viability", "setting": "RERF-LC-KJ; first compound 0.253 µM", "value": 0.657}, {"measurement": "relative viability", "setting": "RERF-LC-KJ; first compound 0.8 µM", "value": 0.583}, {"measurement": "relative viability", "setting": "RERF-LC-KJ; first compound 2.53 µM", "value": 0.552}, {"measurement": "relative viability", "setting": "LK-2; first compound 0.08 µM", "value": 0.263}, {"measurement": "relative viability", "setting": "LK-2; first compound 0.253 µM", "value": 0.322}, {"measurement": "relative viability", "setting": "LK-2; first compound 0.8 µM", "value": 0.318}, {"measurement": "relative viability", "setting": "LK-2; first compound 2.53 µM", "value": 0.189}, {"measurement": "relative viability", "setting": "ChaGo-K-1; first compound 0.08 µM", "value": 0.495}, {"measurement": "relative viability", "setting": "ChaGo-K-1; first compound 0.253 µM", "value": 0.505}, {"measurement": "relative viability", "setting": "ChaGo-K-1; first compound 0.8 µM", "value": 0.507}, {"measurement": "relative viability", "setting": "ChaGo-K-1; first compound 2.53 µM", "value": 0.494}, {"measurement": "relative viability", "setting": "NCI-H1793; first compound 0.08 µM", "value": 0.506}, {"measurement": "relative viability", "setting": "NCI-H1793; first compound 0.253 µM", "value": 0.403}, {"measurement": "relative viability", "setting": "NCI-H1793; first compound 0.8 µM", "value": 0.549}, {"measurement": "relative viability", "setting": "NCI-H1793; first compound 2.53 µM", "value": 0.416}, {"measurement": "relative viability", "setting": "LC-2-ad; first compound 0.08 µM", "value": 0.786}, {"measurement": "relative viability", "setting": "LC-2-ad; first compound 0.253 µM", "value": 0.719}, {"measurement": "relative viability", "setting": "LC-2-ad; first compound 0.8 µM", "value": 0.872}, {"measurement": "relative viability", "setting": "LC-2-ad; first compound 2.53 µM", "value": 0.733}, {"measurement": "relative viability", "setting": "NCI-H1648; first compound 0.253 µM", "value": 0.423}, {"measurement": "relative viability", "setting": "NCI-H1648; first compound 0.8 µM", "value": 0.386}, {"measurement": "relative viability", "setting": "NCI-H1648; first compound 2.53 µM", "value": 0.438}, {"measurement": "relative viability", "setting": "EMC-BAC-2; first compound 0.08 µM", "value": 1.04}, {"measurement": "relative viability", "setting": "EMC-BAC-2; first compound 0.253 µM", "value": 0.935}, {"measurement": "relative viability", "setting": "EMC-BAC-2; first compound 0.8 µM", "value": 0.884}, {"measurement": "relative viability", "setting": "EMC-BAC-2; first compound 2.53 µM", "value": 0.721}, {"measurement": "relative viability", "setting": "HCC-827; first compound 0.08 µM", "value": 0.327}, {"measurement": "relative viability", "setting": "HCC-827; first compound 0.253 µM", "value": 0.269}, {"measurement": "relative viability", "setting": "HCC-827; first compound 0.8 µM", "value": 0.321}, {"measurement": "relative viability", "setting": "HCC-827; first compound 2.53 µM", "value": 0.254}, {"measurement": "relative viability", "setting": "NCI-H1944; first compound 0.08 µM", "value": 0.424}, {"measurement": "relative viability", "setting": "NCI-H1944; first compound 0.253 µM", "value": 0.439}, {"measurement": "relative viability", "setting": "NCI-H1944; first compound 0.8 µM", "value": 0.44}, {"measurement": "relative viability", "setting": "NCI-H1944; first compound 2.53 µM", "value": 0.403}, {"measurement": "relative viability", "setting": "NCI-H1792; first compound 0.08 µM", "value": 0.604}, {"measurement": "relative viability", "setting": "NCI-H1792; first compound 0.253 µM", "value": 0.485}, {"measurement": "relative viability", "setting": "NCI-H1792; first compound 0.8 µM", "value": 0.503}, {"measurement": "relative viability", "setting": "NCI-H1792; first compound 2.53 µM", "value": 0.42}]}
